In ChEMBL document CHEMBL4477270, “Design, synthesis, and protein methyltransferase activity of a unique set of constrained amine containing compounds” (Bioorg Med Chem Lett, 2016):
Active and inactive are the calls of the source. No cut-off for these calls is given here.

Experiments:
[1] = target: Histone-lysine N-methyltransferase EZH2 (Homo sapiens) (UniProt Q15910); experiment: Inhibition of EZH2 (unknown origin) using biotin-labeled histone substrate assessed as residual activity at 50 uM in presence of [3H-Me]SAM by scintillation proximity assay relative to control
[2] = target: Histone-lysine N-methyltransferase 2C (Homo sapiens) (UniProt Q8NEZ4); experiment: Inhibition of MLL3 (unknown origin) using biotin-labeled histone substrate assessed as residual activity at 50 uM in presence of [3H-Me]SAM by scintillation proximity assay relative to control
Chain of Histone-lysine N-methyltransferase 2C (Homo sapiens) (Q8NEZ4 whole entry): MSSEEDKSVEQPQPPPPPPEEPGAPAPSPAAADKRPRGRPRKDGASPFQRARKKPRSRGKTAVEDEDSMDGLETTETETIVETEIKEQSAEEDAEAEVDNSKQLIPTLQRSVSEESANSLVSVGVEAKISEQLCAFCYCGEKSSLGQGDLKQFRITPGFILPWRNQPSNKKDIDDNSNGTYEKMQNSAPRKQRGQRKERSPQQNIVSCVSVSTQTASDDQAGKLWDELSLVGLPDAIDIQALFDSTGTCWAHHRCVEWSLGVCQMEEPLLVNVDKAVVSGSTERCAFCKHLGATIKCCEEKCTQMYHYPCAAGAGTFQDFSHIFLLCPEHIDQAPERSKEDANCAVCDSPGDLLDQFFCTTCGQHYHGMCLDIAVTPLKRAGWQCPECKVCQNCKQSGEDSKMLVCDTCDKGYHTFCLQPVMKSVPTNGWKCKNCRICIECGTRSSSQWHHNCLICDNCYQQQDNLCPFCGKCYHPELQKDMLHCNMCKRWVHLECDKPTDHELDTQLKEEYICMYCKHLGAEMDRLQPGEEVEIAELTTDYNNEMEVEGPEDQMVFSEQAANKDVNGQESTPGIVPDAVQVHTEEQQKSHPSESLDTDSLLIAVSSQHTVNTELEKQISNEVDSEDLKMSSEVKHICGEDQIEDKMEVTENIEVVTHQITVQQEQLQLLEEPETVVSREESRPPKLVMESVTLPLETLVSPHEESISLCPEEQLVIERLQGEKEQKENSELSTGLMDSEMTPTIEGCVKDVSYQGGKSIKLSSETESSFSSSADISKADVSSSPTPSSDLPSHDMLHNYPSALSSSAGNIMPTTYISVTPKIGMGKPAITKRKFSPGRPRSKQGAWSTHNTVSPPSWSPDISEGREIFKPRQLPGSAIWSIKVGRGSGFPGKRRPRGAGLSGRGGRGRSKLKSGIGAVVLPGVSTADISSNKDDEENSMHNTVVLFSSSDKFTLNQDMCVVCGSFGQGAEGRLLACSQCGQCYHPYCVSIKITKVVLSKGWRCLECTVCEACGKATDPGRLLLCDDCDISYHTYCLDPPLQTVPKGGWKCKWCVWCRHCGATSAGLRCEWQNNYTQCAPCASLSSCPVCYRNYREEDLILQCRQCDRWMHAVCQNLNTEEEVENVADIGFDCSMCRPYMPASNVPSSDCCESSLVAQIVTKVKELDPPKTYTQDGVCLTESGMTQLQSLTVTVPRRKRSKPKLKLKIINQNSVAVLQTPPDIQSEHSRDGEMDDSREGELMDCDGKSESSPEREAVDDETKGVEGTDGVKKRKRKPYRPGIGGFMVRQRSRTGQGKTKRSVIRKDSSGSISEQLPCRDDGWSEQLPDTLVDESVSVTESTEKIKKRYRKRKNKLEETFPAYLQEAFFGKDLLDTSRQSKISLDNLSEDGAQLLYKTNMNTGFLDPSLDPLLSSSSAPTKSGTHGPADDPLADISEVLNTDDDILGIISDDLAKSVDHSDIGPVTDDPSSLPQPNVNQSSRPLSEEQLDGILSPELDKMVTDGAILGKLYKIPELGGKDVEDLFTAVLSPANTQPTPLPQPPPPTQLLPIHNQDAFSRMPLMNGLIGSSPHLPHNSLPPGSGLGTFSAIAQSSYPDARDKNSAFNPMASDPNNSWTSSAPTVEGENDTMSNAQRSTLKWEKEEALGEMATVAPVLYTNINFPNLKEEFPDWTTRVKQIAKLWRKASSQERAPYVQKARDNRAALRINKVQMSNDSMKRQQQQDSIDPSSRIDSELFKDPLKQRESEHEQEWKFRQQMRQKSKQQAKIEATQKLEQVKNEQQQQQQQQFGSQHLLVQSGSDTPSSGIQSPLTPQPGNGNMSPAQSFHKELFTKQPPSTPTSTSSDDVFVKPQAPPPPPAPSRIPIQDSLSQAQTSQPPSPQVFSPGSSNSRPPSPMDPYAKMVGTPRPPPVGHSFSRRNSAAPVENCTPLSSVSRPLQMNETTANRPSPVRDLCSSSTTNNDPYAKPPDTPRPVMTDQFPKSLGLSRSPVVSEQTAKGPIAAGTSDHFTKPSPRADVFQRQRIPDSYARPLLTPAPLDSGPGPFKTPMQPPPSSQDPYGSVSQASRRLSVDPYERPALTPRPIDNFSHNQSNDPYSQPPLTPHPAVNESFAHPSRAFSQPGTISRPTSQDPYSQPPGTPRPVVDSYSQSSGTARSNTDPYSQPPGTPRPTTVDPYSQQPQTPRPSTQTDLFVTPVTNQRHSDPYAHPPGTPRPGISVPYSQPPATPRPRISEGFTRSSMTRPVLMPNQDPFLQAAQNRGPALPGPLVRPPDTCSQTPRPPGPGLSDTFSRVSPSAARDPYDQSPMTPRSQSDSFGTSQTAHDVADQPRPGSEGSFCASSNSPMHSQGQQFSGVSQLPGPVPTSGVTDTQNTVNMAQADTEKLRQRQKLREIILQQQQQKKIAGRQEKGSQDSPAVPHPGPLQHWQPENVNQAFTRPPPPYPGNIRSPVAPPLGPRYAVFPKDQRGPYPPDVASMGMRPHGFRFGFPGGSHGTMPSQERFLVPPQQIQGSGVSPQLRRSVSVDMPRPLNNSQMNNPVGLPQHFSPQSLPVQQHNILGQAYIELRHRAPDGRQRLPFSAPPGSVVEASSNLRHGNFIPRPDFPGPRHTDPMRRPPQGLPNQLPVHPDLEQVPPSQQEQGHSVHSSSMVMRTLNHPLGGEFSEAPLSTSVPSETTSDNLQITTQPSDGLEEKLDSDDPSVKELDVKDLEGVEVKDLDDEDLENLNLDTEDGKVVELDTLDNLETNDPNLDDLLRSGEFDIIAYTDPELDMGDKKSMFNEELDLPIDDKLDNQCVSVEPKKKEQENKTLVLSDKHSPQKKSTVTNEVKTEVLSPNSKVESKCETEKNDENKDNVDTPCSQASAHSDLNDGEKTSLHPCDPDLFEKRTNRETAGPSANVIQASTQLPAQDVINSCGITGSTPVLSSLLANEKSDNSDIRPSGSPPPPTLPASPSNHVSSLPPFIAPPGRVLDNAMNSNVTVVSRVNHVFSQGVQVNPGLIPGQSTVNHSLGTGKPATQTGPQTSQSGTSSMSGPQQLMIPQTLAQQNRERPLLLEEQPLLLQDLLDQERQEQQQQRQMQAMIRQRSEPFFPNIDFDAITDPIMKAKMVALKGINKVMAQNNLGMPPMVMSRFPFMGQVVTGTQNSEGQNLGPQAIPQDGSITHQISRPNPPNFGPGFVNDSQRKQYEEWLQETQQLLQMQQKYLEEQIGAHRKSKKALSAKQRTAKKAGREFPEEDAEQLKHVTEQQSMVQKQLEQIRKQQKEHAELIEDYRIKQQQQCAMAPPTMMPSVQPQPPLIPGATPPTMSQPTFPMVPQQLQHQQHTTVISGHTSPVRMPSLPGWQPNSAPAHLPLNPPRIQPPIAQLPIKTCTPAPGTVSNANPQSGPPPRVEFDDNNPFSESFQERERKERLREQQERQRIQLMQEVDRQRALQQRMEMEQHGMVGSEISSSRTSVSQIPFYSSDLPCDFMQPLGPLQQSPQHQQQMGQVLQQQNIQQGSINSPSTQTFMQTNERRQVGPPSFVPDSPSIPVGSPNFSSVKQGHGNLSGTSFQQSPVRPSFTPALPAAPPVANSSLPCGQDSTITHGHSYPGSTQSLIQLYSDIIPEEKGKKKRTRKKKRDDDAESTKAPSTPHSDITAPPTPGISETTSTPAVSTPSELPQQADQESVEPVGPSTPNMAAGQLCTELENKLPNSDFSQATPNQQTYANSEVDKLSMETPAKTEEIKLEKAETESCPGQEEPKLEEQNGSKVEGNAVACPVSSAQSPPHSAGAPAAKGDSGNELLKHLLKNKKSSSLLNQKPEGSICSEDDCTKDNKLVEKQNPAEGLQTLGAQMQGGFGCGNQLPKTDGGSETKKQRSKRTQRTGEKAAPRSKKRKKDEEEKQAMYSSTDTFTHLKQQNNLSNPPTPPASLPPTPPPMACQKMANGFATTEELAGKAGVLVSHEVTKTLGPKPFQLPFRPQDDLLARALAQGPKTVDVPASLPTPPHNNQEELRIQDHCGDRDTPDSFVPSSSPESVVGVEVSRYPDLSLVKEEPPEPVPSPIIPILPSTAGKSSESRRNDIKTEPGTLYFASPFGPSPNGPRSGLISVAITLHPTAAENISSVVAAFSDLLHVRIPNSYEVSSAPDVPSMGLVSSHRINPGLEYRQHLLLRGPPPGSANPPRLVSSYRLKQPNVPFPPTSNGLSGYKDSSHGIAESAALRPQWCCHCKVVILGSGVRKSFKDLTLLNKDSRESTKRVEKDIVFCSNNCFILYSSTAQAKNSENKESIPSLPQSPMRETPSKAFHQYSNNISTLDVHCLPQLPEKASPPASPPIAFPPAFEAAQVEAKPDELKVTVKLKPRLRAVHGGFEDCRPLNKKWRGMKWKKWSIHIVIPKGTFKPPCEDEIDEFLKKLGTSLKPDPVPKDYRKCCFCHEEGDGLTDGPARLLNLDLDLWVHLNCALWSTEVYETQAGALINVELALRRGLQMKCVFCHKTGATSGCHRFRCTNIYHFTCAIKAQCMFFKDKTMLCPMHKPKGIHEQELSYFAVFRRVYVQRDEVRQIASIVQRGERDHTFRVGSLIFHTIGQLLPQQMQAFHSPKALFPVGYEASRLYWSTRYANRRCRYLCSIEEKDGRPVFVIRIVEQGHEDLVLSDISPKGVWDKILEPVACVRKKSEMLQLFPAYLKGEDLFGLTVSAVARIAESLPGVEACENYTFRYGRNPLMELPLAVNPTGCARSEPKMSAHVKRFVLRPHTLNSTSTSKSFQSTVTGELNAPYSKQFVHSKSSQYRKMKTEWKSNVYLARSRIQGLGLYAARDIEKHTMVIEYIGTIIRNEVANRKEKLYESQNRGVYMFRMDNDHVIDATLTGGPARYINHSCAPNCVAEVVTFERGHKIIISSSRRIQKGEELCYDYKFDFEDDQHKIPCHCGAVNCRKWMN

[3] = target: T1, Histone-lysine N-methyltransferase NSD3 (Homo sapiens) (UniProt Q9BZ95); experiment: Inhibition of NSD3 (unknown origin) using biotin-labeled histone substrate assessed as residual activity at 50 uM in presence of [3H-Me]SAM by scintillation proximity assay relative to control
T1 sequence (whole entry): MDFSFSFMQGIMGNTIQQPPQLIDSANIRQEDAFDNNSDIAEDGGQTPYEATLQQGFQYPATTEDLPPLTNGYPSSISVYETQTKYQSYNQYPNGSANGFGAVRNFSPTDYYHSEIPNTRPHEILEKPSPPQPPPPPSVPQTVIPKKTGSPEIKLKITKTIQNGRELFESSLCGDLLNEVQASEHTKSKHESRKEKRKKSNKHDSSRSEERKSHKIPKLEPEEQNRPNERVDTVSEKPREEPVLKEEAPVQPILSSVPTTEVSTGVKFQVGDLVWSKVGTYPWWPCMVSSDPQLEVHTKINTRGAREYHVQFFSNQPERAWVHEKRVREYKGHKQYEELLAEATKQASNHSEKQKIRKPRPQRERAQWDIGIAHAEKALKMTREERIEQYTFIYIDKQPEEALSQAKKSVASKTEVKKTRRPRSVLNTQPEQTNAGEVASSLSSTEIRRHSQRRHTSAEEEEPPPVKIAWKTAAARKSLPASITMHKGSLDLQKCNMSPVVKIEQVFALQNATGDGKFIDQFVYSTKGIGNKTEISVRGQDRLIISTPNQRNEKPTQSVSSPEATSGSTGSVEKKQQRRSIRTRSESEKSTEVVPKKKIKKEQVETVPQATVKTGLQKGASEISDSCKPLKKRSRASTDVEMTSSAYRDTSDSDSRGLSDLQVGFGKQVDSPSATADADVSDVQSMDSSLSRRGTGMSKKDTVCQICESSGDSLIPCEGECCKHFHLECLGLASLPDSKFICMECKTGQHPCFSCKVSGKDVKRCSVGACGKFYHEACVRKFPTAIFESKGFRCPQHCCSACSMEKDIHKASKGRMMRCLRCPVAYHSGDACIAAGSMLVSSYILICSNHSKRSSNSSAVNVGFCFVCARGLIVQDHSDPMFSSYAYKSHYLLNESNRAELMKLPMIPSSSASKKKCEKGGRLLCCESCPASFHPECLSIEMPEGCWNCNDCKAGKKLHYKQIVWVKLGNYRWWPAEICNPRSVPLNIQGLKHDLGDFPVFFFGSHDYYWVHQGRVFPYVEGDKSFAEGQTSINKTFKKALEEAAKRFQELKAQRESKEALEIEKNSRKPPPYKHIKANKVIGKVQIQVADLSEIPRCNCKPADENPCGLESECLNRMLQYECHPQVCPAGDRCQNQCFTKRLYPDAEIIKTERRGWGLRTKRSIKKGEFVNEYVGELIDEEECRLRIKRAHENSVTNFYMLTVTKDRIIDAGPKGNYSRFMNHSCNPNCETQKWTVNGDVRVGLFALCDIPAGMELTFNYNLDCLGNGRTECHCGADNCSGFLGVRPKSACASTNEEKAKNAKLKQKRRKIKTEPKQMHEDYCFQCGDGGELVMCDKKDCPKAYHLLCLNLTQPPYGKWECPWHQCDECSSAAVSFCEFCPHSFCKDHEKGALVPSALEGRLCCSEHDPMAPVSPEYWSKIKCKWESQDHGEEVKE

[4] = target: Protein N-lysine methyltransferase METTL21D (Homo sapiens) (UniProt Q9H867); experiment: Inhibition of METTL21D (unknown origin) using biotin-labeled histone substrate assessed as residual activity at 50 uM in presence of [3H-Me]SAM by scintillation proximity assay relative to control
Chain of Protein N-lysine methyltransferase METTL21D (Homo sapiens) (Q9H867 whole entry, the tested form may be a part): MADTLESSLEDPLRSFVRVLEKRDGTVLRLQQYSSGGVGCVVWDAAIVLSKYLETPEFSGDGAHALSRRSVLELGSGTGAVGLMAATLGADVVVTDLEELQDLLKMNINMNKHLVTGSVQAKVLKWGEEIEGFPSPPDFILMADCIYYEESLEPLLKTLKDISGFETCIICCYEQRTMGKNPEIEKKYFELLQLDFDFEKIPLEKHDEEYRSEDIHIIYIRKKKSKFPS

[5] = target: T2, N-lysine methyltransferase KMT5A (Homo sapiens, UniProt Q9NQR1); experiment: Inhibition of SETD8 (unknown origin) using biotin-labeled histone H4 (1 to 24 residues) as substrate in presence of [3H-Me]SAM by scintillation proximity assay
T2 sequence (Q9NQR1 whole entry): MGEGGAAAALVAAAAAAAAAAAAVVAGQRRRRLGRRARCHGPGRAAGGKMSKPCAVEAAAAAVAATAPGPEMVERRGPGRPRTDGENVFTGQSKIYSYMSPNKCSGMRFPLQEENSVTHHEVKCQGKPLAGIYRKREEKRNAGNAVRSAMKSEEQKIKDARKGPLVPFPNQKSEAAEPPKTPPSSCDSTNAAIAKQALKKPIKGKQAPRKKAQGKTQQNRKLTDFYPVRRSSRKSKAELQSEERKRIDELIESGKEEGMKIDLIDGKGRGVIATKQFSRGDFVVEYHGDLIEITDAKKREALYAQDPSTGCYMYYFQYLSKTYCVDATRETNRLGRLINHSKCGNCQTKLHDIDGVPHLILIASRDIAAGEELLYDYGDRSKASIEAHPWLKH

[6] = target: T3, N-lysine methyltransferase KMT5A (Homo sapiens) (UniProt Q9NQR1); experiment: Binding affinity to SETD8 (unknown origin) in presence of S-adenosyl-L-homocysteine by isothermal titration calorimetry
T3 sequence (whole entry): T2 sequence (Q9NQR1 whole entry)

[7] = target: T3, N-lysine methyltransferase KMT5A (Homo sapiens); experiment: Binding affinity to SETD8 (unknown origin) in absence of S-adenosyl-L-homocysteine by isothermal titration calorimetry

SMILES | Activity [1] [%] | Activity [2] [%] | Activity [3] [%] | Activity [4] [%] | IC50 [5] [µM] | Activity [6] | Activity [7]
O=C(c1cccc(Br)c1)N1C[C@@H]2CC3CCCCN3[C@@H]2C1 (stereo partly specified) | 92 | 102 | 94 | 106 | – | – | –
CN1CCC2(CC1)CCN(C(=O)c1cccc(Br)c1)CC2 | 87 | 99 | 110 | 105 | – | – | –
CN1CC[C@H]2CN(C(=O)c3cccc(Br)c3)C[C@H]21 | 87 | 105 | 92 | 105 | – | – | –
O=C(c1cccc(Br)c1)N1CC[C@H]2NCC[C@H]2C1 | 98 | 103 | 107 | 103 | – | – | –
O=C(c1cccc(Br)c1)N1CCCC2(CCNCC2)C1 | 88 | 107 | 93 | 106 | – | – | –
O=C(c1cccc(Br)c1)N1CCC2(CCNCC2)CC1 | 88 | 103 | 98 | 101 | – | – | –
CN1CCCC2(CCCN(C(=O)c3cccc(Br)c3)C2)C1 (stereo unspecified) | 90 | 96 | 99 | 99 | – | – | –
O=C(c1cccc(Br)c1)N1CCC2CNCC2C1 (stereo unspecified) | 98 | 104 | 102 | 113 | – | – | –
O=C(c1cccc(Br)c1)N1CCCC2(CCCCN2)C1 (stereo unspecified) | 96 | 101 | 111 | 103 | – | – | –
O=C(c1cccc(Br)c1)N1C[C@H]2CCCN[C@H]2C1 | 103 | 116 | 100 | 102 | – | – | –
C[N+]1(C)CCCCC12CCN(C(=O)c1cccc(Br)c1)CC2 | 90 | 96 | 99 | 102 | > 200 | – | –
CN1CCCC12CCCN(C(=O)c1cccc(Br)c1)C2 (stereo unspecified) | 88 | 105 | 95 | 99 | – | – | –
CN1CCCC12CCN(C(=O)c1cccc(Br)c1)CC2 | 95 | 106 | 101 | 120 | – | – | –
CN1CCCCC12CCN(C(=O)c1cccc(Br)c1)CC2 | 88 | 104 | 97 | 99 | > 200 | – | –
CN1CCC2(CCCN(C(=O)c3cccc(Br)c3)C2)C1 (stereo unspecified) | 97 | 94 | 104 | 98 | – | – | –
O=C(c1cccc(Br)c1)N1CCC[C@@H]2CNC[C@@H]21 | 94 | 108 | 106 | 106 | – | – | –
O=C(c1cccc(Br)c1)N1CC[C@@H]2[C@@H](CC3CCCCN32)C1 (stereo partly specified) | 86 | 97 | 98 | 106 | – | – | –
CN1C[C@H]2CCCN(C(=O)c3cccc(Br)c3)[C@H]2C1 | 91 | 105 | 92 | 102 | – | – | –
O=C(c1cccc(Br)c1)N1C[C@@H]2CCN[C@@H]2C1 | 85 | 95 | 94 | 98 | – | – | –
O=C(c1cccc(Br)c1)N1C[C@@H]2CC3CCCN3[C@@H]2C1 (stereo partly specified) | 90 | 97 | 106 | 106 | – | – | –
CN1CCC[C@@H]2CN(C(=O)c3cccc(Br)c3)C[C@@H]21 | 90 | 106 | 98 | 100 | 39 | inactive | inactive
CN1CCCCC12CCCN(C(=O)c1cccc(Br)c1)C2 (stereo unspecified) | 91 | 103 | 100 | 91 | – | – | –
CN1CCC2(CCCN2C(=O)c2cccc(Br)c2)CC1 | 93 | 97 | 96 | 111 | – | – | –
CN1CCCC2(CCCN2C(=O)c2cccc(Br)c2)C1 (stereo unspecified) | 90 | 97 | 102 | 104 | – | – | –
